Data from US11634450B2, “DOT1L degraders and uses thereof” (DANA-FARBER CANCER INSTITUTE, INC., priority 2018, dated 2023).

What was measured:
DOT1L [1] = target: T1, DOT1L (Homo sapiens, UniProt Q8TEK3); assay: Degradation in Molm13 PA cell line by immunoblot; type: cell-based; design: endogenous in cells; settings: FIGS. 9A-9B, 0.3 μM to 10 μM, 24, 48 and 72 hours
Description: FIGS. 9A-9B show acute myeloid leukemia cells (Molm13 PA) treated with DOT1L-1 at the indicated concentrations for the indicated amount of time. The cells were immunoblotted with DOT1L (D402T), actin, and H3K79me2.
The cells were immunoblotted with DOT1L (D402T), actin, and H3K79me2.
Molm13PA (acute myeloid leukemia) cells were treated with dDOT1L-1 at 0 μM, 0.3 μM, 1 μM, 3.3 μM, and 10 μM for 24 hours and 48 hours. Cell lysates were loaded on SDS-PAGE, then immunoblotted with DOT1L (D402T), actin, H3K79me2, total H3. Repeat treatment was performed at 24 hours, 48 hours and 72 hours at the same concentrations of dDOT1L-1. […] (see FIGS. 9A-9B).
Molm13PA (acute myeloid leukemia) cells were treated with DOT1L-4 at 0 μM, 0.3 μM, 1 μM, 3.3 μM, and 10 μM for 24 hours, 48 hours, and 72 hours. Cell lysates were loaded on SDS-PAGE, then immunoblotted with DOT1L (D402T), actin, H3K79me2, total H3.

DOT1L [2] = target: T2, DOT1L (Mus musculus, UniProt Q6XZL8); assay: Degradation in mouse MLL-AF9 PA cell line by immunoblot; type: cell-based; settings: FIGS. 10A-10B, mouse MLL-AF9 PA cells, up to 10 μM, 24, 48 and 72 hours
T2 construct: endogenous in cells; host or cells: mouse MLL-AF9 PA leukemia cells
Description: FIGS. 10A-10B show mouse MLL-AF9 PA (Mixed-lineage leukemia (MLL)-AF9 leukemia) cells treated with DOT1L-1 at the indicated concentrations for the indicated amount of time. The cells were immunoblotted with DOT1L (D402T), actin, and H3K79me2.
Mouse MLL-AF9 PA (Mixed-lineage leukemia (MLL)-AF9 leukemia) cells were treated with DOT1L-1 at 0 μM, 0.3 μM, 1 μM, 3.3 μM, and 10 μM for 24 hours, 48 hours, and 72 hours. Cell lysates were loaded on SDS-PAGE, then immunoblotted with DOT1L (D402T), actin, H3K79me2, and total H3. A second treatment was performed with DOT1L-1 concentrations of 0 μM, 0.01 μM, 0.1 μM, 0.3 μM, 1 μM, 3.3 μM, and 10 μM, at 24 hours and 48 hours.

DOT1L [3] = target: T1, DOT1L; assay: DOT1L degradation in EOL1 cells by immunoblot; type: cell-based; design: endogenous in cells; host or cells: EOL1; settings: for DOT1L degradation: immunoblot
Description: With JQ-DD6, the degradation happened at 16 hours and maximum degradation occurs at 24 hours.
(§1) EOL1 (acute myeloid (eosinophilic) leukemia cell line) cells were treated with exemplary DOT1L degrader compounds JQ-DD6, JQ-DD7, and JQ-DD8 at 0.5 μM, 1 μM, 3 μM, 5 μM, and 10 μM for 24 hours. Cell lysates were loaded on SDS-PAGE, then immunoblotted with DOT1L, Myc, H3K79me2, and actin. (see FIG. 21).
EOL1 cells were treated with exemplary DOT1L degrader compounds JQ-DD2, JQ-DD4, and JQ-DD6, JQ-DD7, and JQ-DD8 at 1 μM and […] for 2, 4, 8, 16, and 24 hours. Cell lysates were immunoblotted with DOT1L, Myc, H3K79me2, and actin at the indicated concentrations for the indicated times. (see FIG. 23).
(§2) EOL1 cells were treated with exemplary DOT1L degrader compounds JQ-DD6, JQ-DD7, and JQ-DD8 at 1 μM and […] for 24 and 48 hours. Cell lysates were immunoblotted with DOT1L, Myc, H3K79me2, and actin at the indicated concentrations for the indicated times. (see FIG. 24).

CRBN with DOT1L = CRBN with DOT1L (Homo sapiens, UniProt Q8TEK3+Q96SW2); assay: Biochemical dimerization assay of CRBN with DOT1L induced by the degraders; settings: FIG. 20, biochemical assay setting
From the text: This new assay checks if the exemplary compounds can dimerize CRBN and DOT1L in a biochemical assay setting.
A biochemical assay was completed to determine the dimerization of CRBN with DOT1L induced by the degraders. This assay checks if the exemplary compounds can dimerize CRBN and DOT1L in a biochemical assay setting.

[4] = target: T3, DOT1L tagged GFP and mcherry (Homo sapiens, UniProt Q8TEK3+Q96SW2); assay: DOT1L degradation eGFP-mCherry reporting cell line assay; type: cell-based; settings: FIG. 26, eGFP-mCherry reporting cell line, 24 hour treatment
T3 construct: eGFP; mCherry; expressed in transfected cells
Description: This can directly report the targeted protein degradation. (See Sievers et al., Science, 2018).
The tested compounds include exemplary DOT1L degrader compounds JQ-DD2, JQ-DD3, JQ-DD4, JQ-DD5, JQ-DD6, JQ-DD7, JQ-DD8, negative control EPZ5676, and positive controls thalidomide and lenalidomide. The eGFP-mCherry reporting cell line can report the degradation well in 24 hours.
A new DOT1L degradation reporting cell line was developed with DOT1L tagged GFP and mcherry. This reporting cell line can directly report the targeted protein degradation. (See Sievers et al., Science, 2018). DOT1L degradation using eGFP-mCherry reporting cell line assays were conducted for exemplary DOT1L degrader compounds, and control compounds at different concentrations [M], measured in [M] per mP. The tested compounds include exemplary DOT1L degrader compounds JQ-DD2, JQ-DD3, JQ-DD4, JQ-DD5, JQ-DD6, JQ-DD7, JQ-DD8, and controls EPZ5676, Thalidomide, and Lenalidomide.

EOL1 cells = assay: Toxicity seen in EOL1 cells treated for immunoblot; type: cell-based; settings: at 24 hours
Description: as §1, §2

[5] = FIG. 21, EOL1 cells, 0.5 μM, 1 μM, 3 μM, 5 μM, and 10 μM for 24 hours
[6] = FIG. 23, EOL1 cells, time course 2, 4, 8, 16, and 24 hours, 1 μM and 10M
[7] = FIG. 24, EOL1 cells, 1 μM and 10M for 24 and 48 hours

T1 sequence (Q8TEK3 whole entry): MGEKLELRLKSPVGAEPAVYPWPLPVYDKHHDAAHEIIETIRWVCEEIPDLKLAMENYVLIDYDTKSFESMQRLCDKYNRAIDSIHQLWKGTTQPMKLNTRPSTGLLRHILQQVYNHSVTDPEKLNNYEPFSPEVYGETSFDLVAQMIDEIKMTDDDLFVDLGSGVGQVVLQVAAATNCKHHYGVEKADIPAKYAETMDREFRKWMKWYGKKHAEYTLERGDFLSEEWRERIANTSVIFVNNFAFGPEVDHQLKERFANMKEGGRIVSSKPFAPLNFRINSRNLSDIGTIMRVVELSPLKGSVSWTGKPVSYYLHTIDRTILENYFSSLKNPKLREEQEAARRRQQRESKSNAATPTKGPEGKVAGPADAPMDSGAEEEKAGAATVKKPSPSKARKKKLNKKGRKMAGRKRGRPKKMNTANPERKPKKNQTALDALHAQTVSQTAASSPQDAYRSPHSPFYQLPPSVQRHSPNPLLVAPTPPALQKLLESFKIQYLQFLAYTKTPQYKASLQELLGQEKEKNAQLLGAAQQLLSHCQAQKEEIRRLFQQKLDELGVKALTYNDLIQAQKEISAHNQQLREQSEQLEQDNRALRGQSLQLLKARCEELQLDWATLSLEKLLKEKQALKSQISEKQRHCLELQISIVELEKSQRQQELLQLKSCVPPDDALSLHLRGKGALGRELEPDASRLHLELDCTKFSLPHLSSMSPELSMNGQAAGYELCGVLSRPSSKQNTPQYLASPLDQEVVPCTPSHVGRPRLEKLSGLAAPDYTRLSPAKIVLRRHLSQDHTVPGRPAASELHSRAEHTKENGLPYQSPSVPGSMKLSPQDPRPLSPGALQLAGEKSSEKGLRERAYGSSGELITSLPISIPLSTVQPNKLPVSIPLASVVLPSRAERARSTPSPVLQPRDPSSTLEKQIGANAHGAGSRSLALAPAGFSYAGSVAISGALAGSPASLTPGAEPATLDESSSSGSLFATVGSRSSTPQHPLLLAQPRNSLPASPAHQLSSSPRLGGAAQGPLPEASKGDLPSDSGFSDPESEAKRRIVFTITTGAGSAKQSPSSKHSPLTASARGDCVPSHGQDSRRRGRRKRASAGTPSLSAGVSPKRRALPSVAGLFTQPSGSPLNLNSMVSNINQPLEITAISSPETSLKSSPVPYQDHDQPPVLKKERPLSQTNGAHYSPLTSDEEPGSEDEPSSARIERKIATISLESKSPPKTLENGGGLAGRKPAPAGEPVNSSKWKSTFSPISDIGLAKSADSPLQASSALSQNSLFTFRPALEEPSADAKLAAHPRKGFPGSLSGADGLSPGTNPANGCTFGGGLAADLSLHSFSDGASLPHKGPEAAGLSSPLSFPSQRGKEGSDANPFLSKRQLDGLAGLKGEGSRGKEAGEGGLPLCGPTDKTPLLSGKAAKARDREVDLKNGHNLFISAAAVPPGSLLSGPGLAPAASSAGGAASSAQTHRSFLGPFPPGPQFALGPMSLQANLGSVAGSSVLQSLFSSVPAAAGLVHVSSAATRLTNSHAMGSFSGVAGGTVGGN
T3 sequence (Q8TEK3 whole entry): as above
T3 sequence (Q96SW2 whole entry): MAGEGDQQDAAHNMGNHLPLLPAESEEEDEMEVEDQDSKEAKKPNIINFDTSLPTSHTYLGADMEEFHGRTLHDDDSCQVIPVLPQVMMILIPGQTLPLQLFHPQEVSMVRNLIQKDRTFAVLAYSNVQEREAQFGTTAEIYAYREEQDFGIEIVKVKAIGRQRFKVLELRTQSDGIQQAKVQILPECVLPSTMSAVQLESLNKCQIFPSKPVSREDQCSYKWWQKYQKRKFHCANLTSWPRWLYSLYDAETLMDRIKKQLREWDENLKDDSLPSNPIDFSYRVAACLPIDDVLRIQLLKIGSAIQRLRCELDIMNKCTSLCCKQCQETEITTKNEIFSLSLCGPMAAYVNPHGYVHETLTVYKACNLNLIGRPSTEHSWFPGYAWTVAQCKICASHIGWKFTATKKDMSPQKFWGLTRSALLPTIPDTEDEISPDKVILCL
T3 sequence (Q16531 whole entry partner): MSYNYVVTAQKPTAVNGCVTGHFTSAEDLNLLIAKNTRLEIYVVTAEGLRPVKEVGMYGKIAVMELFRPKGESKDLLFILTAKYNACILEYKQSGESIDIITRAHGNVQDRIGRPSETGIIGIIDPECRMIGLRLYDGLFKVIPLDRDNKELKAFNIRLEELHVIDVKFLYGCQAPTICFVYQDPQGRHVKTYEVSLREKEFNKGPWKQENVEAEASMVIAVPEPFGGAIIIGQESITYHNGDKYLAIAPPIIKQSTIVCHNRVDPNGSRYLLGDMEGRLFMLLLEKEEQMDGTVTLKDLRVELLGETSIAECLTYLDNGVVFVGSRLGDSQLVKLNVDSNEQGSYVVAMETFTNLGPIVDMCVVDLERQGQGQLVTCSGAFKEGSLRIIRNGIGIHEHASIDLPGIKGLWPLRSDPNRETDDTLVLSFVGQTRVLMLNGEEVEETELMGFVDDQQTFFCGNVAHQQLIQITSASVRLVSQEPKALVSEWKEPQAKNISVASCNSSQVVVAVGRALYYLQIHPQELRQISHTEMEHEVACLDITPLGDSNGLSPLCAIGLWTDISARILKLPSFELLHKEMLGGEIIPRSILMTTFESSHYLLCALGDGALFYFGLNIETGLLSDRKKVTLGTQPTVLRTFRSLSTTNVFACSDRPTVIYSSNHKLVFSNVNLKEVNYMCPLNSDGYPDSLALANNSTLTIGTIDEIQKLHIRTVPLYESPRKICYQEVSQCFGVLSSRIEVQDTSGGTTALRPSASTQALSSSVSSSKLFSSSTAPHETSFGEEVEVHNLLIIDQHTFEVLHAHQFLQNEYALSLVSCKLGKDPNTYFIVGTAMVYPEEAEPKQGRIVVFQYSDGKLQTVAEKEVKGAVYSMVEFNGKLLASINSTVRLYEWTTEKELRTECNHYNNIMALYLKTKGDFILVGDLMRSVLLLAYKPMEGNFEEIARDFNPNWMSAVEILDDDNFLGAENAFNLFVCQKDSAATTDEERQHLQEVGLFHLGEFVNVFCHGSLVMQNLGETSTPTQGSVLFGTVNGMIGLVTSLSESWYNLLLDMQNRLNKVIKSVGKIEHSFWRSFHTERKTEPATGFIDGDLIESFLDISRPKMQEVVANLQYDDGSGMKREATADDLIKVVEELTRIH
Sequence of CRBN with DOT1L (Q8TEK3 whole entry): as the sequence (Q8TEK3 whole entry) above
Sequence of CRBN with DOT1L (Q96SW2 whole entry): as the sequence (Q96SW2 whole entry) above
T2 sequence (Q6XZL8 1-1540): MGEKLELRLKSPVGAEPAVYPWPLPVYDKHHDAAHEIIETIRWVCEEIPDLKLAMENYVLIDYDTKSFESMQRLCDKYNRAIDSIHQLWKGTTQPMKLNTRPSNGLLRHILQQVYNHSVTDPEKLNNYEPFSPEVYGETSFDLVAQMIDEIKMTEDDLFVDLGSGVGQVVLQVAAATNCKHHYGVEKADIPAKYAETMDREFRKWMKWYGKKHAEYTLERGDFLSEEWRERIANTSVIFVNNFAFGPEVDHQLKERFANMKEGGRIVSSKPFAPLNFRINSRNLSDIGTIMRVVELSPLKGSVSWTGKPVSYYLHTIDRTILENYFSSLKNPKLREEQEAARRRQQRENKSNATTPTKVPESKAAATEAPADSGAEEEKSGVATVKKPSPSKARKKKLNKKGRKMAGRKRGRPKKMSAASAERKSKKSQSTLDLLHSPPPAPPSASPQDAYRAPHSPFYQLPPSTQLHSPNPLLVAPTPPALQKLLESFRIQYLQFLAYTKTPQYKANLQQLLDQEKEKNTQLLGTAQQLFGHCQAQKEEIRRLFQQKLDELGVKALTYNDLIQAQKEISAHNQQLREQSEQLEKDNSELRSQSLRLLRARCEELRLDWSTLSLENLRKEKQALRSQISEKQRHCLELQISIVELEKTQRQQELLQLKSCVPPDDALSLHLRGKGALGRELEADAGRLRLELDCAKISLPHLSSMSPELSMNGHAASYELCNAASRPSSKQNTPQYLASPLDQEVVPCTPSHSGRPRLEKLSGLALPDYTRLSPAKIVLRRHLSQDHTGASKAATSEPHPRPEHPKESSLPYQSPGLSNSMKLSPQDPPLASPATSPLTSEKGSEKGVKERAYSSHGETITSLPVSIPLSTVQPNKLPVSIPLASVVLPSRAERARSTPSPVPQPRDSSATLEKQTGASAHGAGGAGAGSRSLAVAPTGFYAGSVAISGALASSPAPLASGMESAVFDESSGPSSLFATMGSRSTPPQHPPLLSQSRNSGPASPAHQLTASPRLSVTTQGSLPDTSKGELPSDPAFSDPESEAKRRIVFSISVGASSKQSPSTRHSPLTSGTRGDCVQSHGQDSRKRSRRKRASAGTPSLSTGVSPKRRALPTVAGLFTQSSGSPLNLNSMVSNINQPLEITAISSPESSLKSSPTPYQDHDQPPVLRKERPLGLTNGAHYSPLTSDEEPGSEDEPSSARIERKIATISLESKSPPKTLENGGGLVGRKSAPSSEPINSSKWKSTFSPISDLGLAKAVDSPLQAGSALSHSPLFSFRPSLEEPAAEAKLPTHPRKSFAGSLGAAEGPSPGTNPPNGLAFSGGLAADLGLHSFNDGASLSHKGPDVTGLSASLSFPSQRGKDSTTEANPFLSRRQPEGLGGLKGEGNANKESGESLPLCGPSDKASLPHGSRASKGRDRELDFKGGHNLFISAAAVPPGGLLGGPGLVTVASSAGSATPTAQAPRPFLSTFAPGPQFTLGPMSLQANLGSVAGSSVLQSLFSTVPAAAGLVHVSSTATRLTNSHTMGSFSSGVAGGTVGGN

CC(C)N(C[C@H]1O[C@@H](n2cnc3c(NCCCCNC(=O)C=COCCOCCOCCNc4cccc5c4C(=O)N(C4CCC(=O)NC4=O)C5=O)ncnc32)[C@H](O)[C@@H]1O)C1CC(CCc2nc3cc(C(C)(C)C)ccc3[nH]2)C1 (stereo partly drawn) [DOT1L-1, N-(4-((9-((2R,3R,4S,5R)-5-(((3-(2-(5-(tert-butyl)-1H-benzo[d]imidazol-2-yl)ethyl)cyclobutyl)(isopropyl)amino)methyl)-3,4-dihydroxytetrahydrofuran-2-yl)-9H-purin-6-yl)amino)butyl)-3-(2-(2-(2-((2-(2,6-dioxopiperidin-3-yl)-1,3-dioxoisoindolin-4-yl)amino)ethoxy)ethoxy)ethoxy)propenamide]
effect on Molm13 PA cells in blots (DOT1L, H3K79me2) (DOT1L [1]): inhibits acute myeloid leukemia cells (Molm13 PA)
degradation in blots (DOT1L, H3K79me2) (DOT1L [2]): degrades Mouse MLL-AF9 PA (Mixed-lineage leukemia (MLL)-AF9 leukemia) cells

CC(C)N(C[C@H]1O[C@@H](n2cnc3c(NCCCCNC(=O)CCCCCCCCCCCNc4cccc5c4C(=O)N(C4CCC(=O)NC4=O)C5=O)ncnc32)C(O)C1O)C1CC(CCc2nc3cc(C(C)(C)C)ccc3[nH]2)C1 (stereo partly drawn) [JQ-DD6]
DOT1L degradation (DOT1L [3]; [5]): solid degradation
time at which DOT1L degradation happened (DOT1L [3]; [6]): 16 h
time of maximum DOT1L degradation (DOT1L [3]; [6]): 24 h
DOT1L degradation (DOT1L [3]; [7]): shows degradation
activity in the cell (DOT1L [3]; general remark in legend of FIG. 20, cell not named there): works very well in the cell
dimerization of CRBN with DOT1L (signal) (CRBN with DOT1L): strongest signal
degradation of DOT1L (reporter signal) [4]: strongest signal for degradation of DOT1L

CC(C)N(C[C@H]1O[C@@H](n2cnc3c(NCCCCNC(=O)CCCCCCCCCNc4cccc5c4C(=O)N(C4CCC(=O)NC4=O)C5=O)ncnc32)C(O)C1O)C1CC(CCc2nc3cc(C(C)(C)C)ccc3[nH]2)C1 (stereo partly drawn) [JQ-DD7]
DOT1L degradation (DOT1L [3]; [5]): show degradation
DOT1L degradation (DOT1L [3]; [7]): shows degradation

CC(C)N(CCCNC(=O)Nc1ccc(C(C)(C)C)cc1)C[C@H]1O[C@@H](n2cnc3c(NCCCCNC(=O)CCCCCCCCCCCNc4cccc5c4C(=O)N(C4CCC(=O)NC4=O)C5=O)ncnc32)C(O)C1O (stereo partly drawn) [JQ-DD8]
DOT1L degradation (DOT1L [3]; [5]): show degradation
DOT1L degradation (DOT1L [3]; [7]): shows degradation
toxicity in EOL1 (EOL1 cells; FIG. 21, EOL1 cells): potential toxicity
toxicity in EOL1 (EOL1 cells; FIG. 24, EOL1 cells): potential toxicity
